Measured values from US5494932A, “Sulfonic stilbene derivatives in the treatment of viral disease” (Merrell Dow Pharmaceuticals Inc., priority 1991, dated 1996).
Like-named read-outs stand apart in the source and are kept apart here.

Experiments:
[1] = tested on: HIV-1 strain RF in C8166 cells; assay: Acute HIV-1 (RF) infection of C8166 cells: syncytial and p24 antigen assays; type: cell-based, HIV-1 (human C8166 cells)
Source text: When evaluated in the human T cell line JM acutely infected with the GB8 virus, DIDS, H2 DIDS and SITS (Table I) suppressed virus-induced multinucleated giant cell formation (syncytia). […] We also examined the antiviral properties of these compounds in a second host-cell/virus system, i.e., the highly CD4+ C8166 cells infected with the Haitian strain of HIV-1, RF.
The cell lines used were the semi-mature human lymphoblastoid leukemia T cell line JM, the human T-lymphoblastoid C8166 cell line, the human cutaneous T cell lymphoma line H9 and, the human T cell transformed line MT-4. Stocks of HIV-1 strains RF and GB8 (kindly provided by Dr. Graham Farrar, Center for Applied Microbiological Research, Porton Dawn, England) were prepared from chronically infected H9 cells and acutely infected JM cells, respectively. Virus stocks consisted of cell-free growth medium (RPMI 1640 plus 10% fetal calf serum) containing freshly shed virus. Virus titres were determined by a standard plaque reduction assay.
Virus stocks (strains RF or GB8) were diluted into growth medium containing various concentrations of DIDS, H2 DIDS or SITS. The required number of cells were then immediately added and the virus allowed to absorb for 2 hours at 37° C. to give a multiplicity of infection (MOI) of 0.001 infectious units/cell. The virus-infected cells were pelleted, washed three times in phosphate buffered saline (PBS), and resuspended in fresh growth medium containing the appropriate concentrations of stilbene disulfonic acids. Cells were then distributed into 24-well culture plates (Falcon) and assayed as described below for virus infection. Alternatively, cells were first infected with HIV-1 (strains RF or GB8) for 2 hours at 37° C. at the above MOI. After extensive washing, cells were replated into fresh growth medium containing various concentrations of stilbene disulfonic acids. In the above experiments, syncytia were scored between 2 and 4 days postinfection (p.i.) in triplicate using an Olympus CK2 inverted microscope. The culture fluids were recovered between 3 and 5 days p.i., clarified by low speed centrifugation (2,000 rpm) for 5 minutes and the level of HIV-1 p24 core antigen in the supernatants was determined by p24 antigen ELISA (Coulter). The concentrations of stilbene disulfonic acids giving 50% inhibition of HIV-1 growth (IC50) were determined from the dose-response curves by linear regression analysis.

[2] = tested on: HIV-1 strain GB8 in JM cells; assay: Established HIV-1 (GB8) infection of JM cells, post-infection addition: syncytia and p24 antigen; type: cell-based, HIV-1 (human T cell line JM); settings: for activity at 100 µg/mL: Human immunodeficiency virus 1, 75 h
Protocol: The stilbene disulfonic acids blocked HIV-1 replication when the compounds were added within 2 hours of virus adsorption, i.e., prior to virus penetration, and the cells were cultured in the presence of the inhibitors. These compounds were next examined for antiviral activity at later stages of the infection process. At a MOI of 0.01 infectious units/cell (GB8 virus), viral glycoproteins appear at the surface of JM cells by 24 hours post-infection (p.i.) and initiate fusion with neighboring CD4^+ cells; the syncytial numbers show a good correlation with the production of cell-free virus (Tyms et al., 1990).
In post-treatent experiments, cells were first infected with HIV-1 strain RF or GB8 for 2 hours at 37° C. at a MOI of 0.01 and allowed to grow for either 24 or 43 hours before replating into fresh growth medium containing 100 μg/ml of DIDS, H2 DIDS or SITS. Syncytia were then scored at 52 and 68 hours p.i. in triplicate, and p24 viral core antigen in culture fluids were assayed at 75 hours p.i. as described above.
Protocol: JM cells were infected with HIV at a multiplicity of infection of 0.00025 syncytial forming units per cell. Virus adsorption was at room temperature for one hour. The cells were then washed three times and distributed in wells of a tissue culture plate at a concentration of 2×10^5 cells/well. Either DIDS, SITS or H2 DIDS (all at 100 μg/ml) were added to wells at 0, 24, 43 and 51 hours post-infection. As virus controls some wells had no drug added. Syncytia were scored at 43, 52 and 68 hours post-infection. The cell-free supernatant fluids of the virus control wells were harvested after 33, 43, 51, 68 and 75 hours post-infection. All other wells were harvested 75 hours post-infection. The supernatant fluid was then assayed for p24 viral core antigen.

HSV 2 = assay: Plaque reduction assay, HSV 2; type: cell-based
Protocol: Protocol: Plaque reduction assay. Treatment after adsorption during incubation.

[3] = 100 μg/ml, time of addition 0 h p.i.
[4] = 100 μg/ml, time of addition 24 h p.i.
[5] = 100 μg/ml, time of addition 43h
[6] = 100 μg/ml, time of addition 43 h p.i.

With `CC(=O)Nc1ccc(C=Cc2ccc(N=C=S)cc2S(=O)(=O)O)c(S(=O)(=O)O)c1` [SITS, 4-acetamido-4'-isothiocyanatostilbene-2,2'-disulfonic acid] the “activity in syncytial and p24 antigen assays” value ([1]; 100 μg/ml, C8166 cells infected with RF) was “inactive”, the activity at 50 µg/mL ([1]; Human immunodeficiency virus 1, 50 µg/mL, RF strain in C8166 cells, read-out: P24 Antigen % Virus Control (values in parenthesis)) was over 100% and the activity at 100 µg/mL ([1]; Human immunodeficiency virus 1, 100 µg/mL, RF strain in C8166 cells, read-out: P24 Antigen % Virus Control (values in parenthesis)) was over 100%. For the same compound, the activity at 200 µg/mL ([1]; Human immunodeficiency virus 1, 200 µg/mL, RF strain in C8166 cells, read-out: P24 Antigen % Virus Control (values in parenthesis)) was over 100%, the “Mean Syncytia 68 hrs” value ([2]; 100 μg/ml, time of addition 0h) was 27 and the “P24 Antigen (75 hours post-infection)” value ([2]; 100 μg/ml, time of addition 0 hours) was 8680 pg/mL. The “P24 Antigen 75 h” value [2, 3] was 6.7 ng/mL, the “Syncytia at 52h” value [2, 3] was 4 and the “Syncytia at 68h” value [2, 3] was 27. For the same compound, the “Mean Syncytia 68 hrs” value ([2]; 100 μg/ml, time of addition 24h) was 77, the “P24 Antigen (75 hours post-infection)” value ([2]; 100 μg/ml, time of addition 24 hours) was 21669 pg/mL and the “P24 Antigen 75 h” value [2, 4] was 21.7 ng/mL. For the same compound, the “Syncytia at 52h” value [2, 4] was 35, the “Syncytia at 68h” value [2, 4] was 77 and the “Mean Syncytia 51 hrs” value [2, 5] was 59. The “Mean Syncytia 68 hrs” value [2, 5] was “As VC”, the “P24 Antigen (75 hours post-infection)” value ([2]; 100 μg/ml, time of addition 43 hours) was 49245 pg/mL and the “P24 Antigen 75 h” value [2, 6] was 49.3 ng/mL. The “Syncytia at 52h” value [2, 6] was 59, the “Syncytia at 68h” value [2, 6] was 80 and the “Mean Syncytia 68 hrs” value ([2]; 100 μg/ml, time of addition 51h) was “As VC”. The “P24 Antigen (75 hours post-infection)” value ([2]; 100 μg/ml, time of addition 51 hours) was 53830 pg/mL, the activity at 100 µg/mL ([2]; 100 μg/ml, time of addition 24 h p.i., read-out: P24 Antigen 75 h, % (drug-free medium 100%)) was 18.6% and the activity at 100 µg/mL ([2]; 100 μg/ml, time of addition 43 h p.i., read-out: P24 Antigen 75 h, % (drug-free medium 100%)) was 42.3%. It also gave an activity at 100 µg/mL ([2]; read-out: P24 Antigen 75 h, % (drug-free medium 100%), 100 μg/ml, time of addition 0 h p.i.) of 7.4%, an activity at 100 µg/mL ([2]; read-out: P24 Antigen (75 hours post-infection), %, 100 μg/ml, time of addition 0 hours) of 7.4% and an activity at 100 µg/mL ([2]; read-out: P24 Antigen (75 hours post-infection), %, 100 μg/ml, time of addition 24 hours) of 18.6%. For the same compound, the activity at 100 µg/mL ([2]; read-out: P24 Antigen (75 hours post-infection), %, 100 μg/ml, time of addition 43 hours) was 42.3%, the activity at 100 µg/mL ([2]; read-out: P24 Antigen (75 hours post-infection), %, 100 μg/ml, time of addition 51 hours) was 47.2% and the “relative order of antiviral potency” value ([2]; established HIV-1 infections) was “DIDS>H2 DIDS>>SITS”. The “anti-syncytial activity relative to virus control” value ([2]; established infection) was “no anti-syncytial activity”, the “p24 antigen (in words)” value ([2]; established infection) was “slightly reduced” and the Plaque counts (HSV 2; 0.1 μg/ml, first count) was 34. It also gave a Plaque counts (HSV 2; 0.1 μg/ml, second count) of 26, a Plaque counts (HSV 2; 1 μg/ml, first count) of 28 and a Plaque counts (HSV 2; 1 μg/ml, second count) of 25. It also gave a Plaque counts (HSV 2; 1 μg/ml, third count) of 23, a Plaque counts (HSV 2; 10 μg/ml, first count) of 25 and a Plaque counts (HSV 2; 10 μg/ml, second count) of 25. It also gave a Plaque counts (HSV 2; 10 μg/ml, third count) of 24, a Plaque counts (HSV 2; 100 μg/ml, first count) of 16 and a Plaque counts (HSV 2; 100 μg/ml, second count) of 13. For the same compound, the activity at 0.1 µg/mL (HSV 2; read-out: Mean % VC (plaques)) was over 100%, the activity at 1 µg/mL (HSV 2; read-out: Mean % VC (plaques)) was 100% and the activity at 10 µg/mL (HSV 2; read-out: Mean % VC (plaques)) was 100%. It also gave an activity at 100 µg/mL (HSV 2; read-out: Mean % VC (plaques)) of 63%.
